Target: human M4 receptor (Homo sapiens (Human), UniProt P08173)
Assay: Radioligand (tritiated N-methylscopolamine) binding assay, M4
Details: Ki against the M4 receptor; membranes from CHO cells expressing human M4; tritiated N-methylscopolamine 1.5 nM; read-out: Ki
Method in brief: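 Test compound (12 concentrations, 10 μM to […]), 1.5 nM radioligand and CHO receptor membranes were co-incubated at 37 °C for 90 minutes in 50 mM HEPES buffer with 100 mM NaCl, 5 mM MgCl2 and 1 mM EDTA, pH 7.4. Membranes were then harvested onto polyethylenimine-pretreated filters and radioactivity was counted to determine Ki.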

human M4 receptor, sequence (P08173 whole entry): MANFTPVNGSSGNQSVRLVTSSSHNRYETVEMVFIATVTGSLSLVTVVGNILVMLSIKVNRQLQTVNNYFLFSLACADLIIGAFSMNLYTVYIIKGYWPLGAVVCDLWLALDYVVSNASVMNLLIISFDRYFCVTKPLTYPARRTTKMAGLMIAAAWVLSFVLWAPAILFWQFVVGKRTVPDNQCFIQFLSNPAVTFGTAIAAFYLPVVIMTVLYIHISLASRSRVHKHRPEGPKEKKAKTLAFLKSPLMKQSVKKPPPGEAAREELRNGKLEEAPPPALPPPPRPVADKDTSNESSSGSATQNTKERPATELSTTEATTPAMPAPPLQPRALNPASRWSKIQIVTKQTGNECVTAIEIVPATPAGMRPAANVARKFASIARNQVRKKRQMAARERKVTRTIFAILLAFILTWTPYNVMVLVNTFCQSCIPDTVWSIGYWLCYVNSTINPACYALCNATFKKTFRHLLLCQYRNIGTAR

| Compound | Ki [nM] |
| --- | --- |
| N#Cc1cccc(N2CCN(C(=O)NCCC3CCN(Cc4ccccc4)CC3)CC2)c1 [8-25, N-[2-(1-benzylpiperidin-4-yl)ethyl]-4-(3-cyanophenyl)piperazine-1-carboxamide] | 100 to 1000 |
| C[C@@H]1CN(c2cc(F)c(F)c(F)c2)CCN1C(=O)NCCC1(CO)CCN(Cc2ccccc2)CC1 [3-20, (2R)-N-{2-[1-benzyl-4-(hydroxymethyl)piperidin-4-yl]ethyl}-2-methyl-4-(3,4,5-trifluorophenyl)piperazine-1-carboxamide] | 10 to 100 |
| COc1ccc(C2CCN(C(=O)NCCC3CCN(Cc4ccccc4)CC3)CC2)cc1 [8-24, N-[2-(1-benzylpiperidin-4-yl)ethyl]-4-(4-methoxyphenyl)piperidine-1-carboxamide] | 100 to 1000 |
| O=C(NCCC1(CO)CCN(Cc2ccccc2)CC1)C1CCN(c2ccc(OC(F)(F)F)cc2)CC1 [9-13, N-{2-[1-benzyl-4-(hydroxymethyl)piperidin-4-yl]ethyl}-1-[4-(trifluoromethoxy)phenyl]piperidine-4-carboxamide] | 10 to 100 |
| Nc1nc(N2CCN(C(=O)NCCC3CCN(Cc4ccccc4)CC3)CC2)ncc1F [5-34, 4-(4-amino-5-fluoropyrimidin-2-yl)-N-[2-(1-benzylpiperidin-4-yl)ethyl]piperazine-1-carboxamide] | 100 to 1000 |
| O=C(OCCC1CCN(Cc2ccccc2)CC1)N1CCC(c2ccccc2)CC1 [12-8, 2-(1-benzylpiperidin-4-yl)ethyl 4-phenylpiperidine-1-carboxylate] | 100 to 1000 |
| O=C(NCCC1CCN(Cc2ccccc2)CC1)c1ccn2cc(-c3ccc(OC(F)(F)F)cc3)nc2c1 [9-25, N-[2-(1-benzylpiperidin-4-yl)ethyl]-2-[4-(trifluoromethoxy)phenyl]imidazo[1,2-a]pyridine-7-carboxamide] | 10 to 100 |
| Cc1c(C(=O)NCCC2CCN(Cc3ccccc3)CC2)cnc2cc(-c3cc(F)ccc3F)nn12 [18-10] | 10 to 100 |
| CN(CCNC(=O)C1CCN(c2cccc(OC(F)(F)F)c2)CC1)[C@@H]1CCN(Cc2ccccc2)C1 [9-22, N-(2-{[(3R)-1-benzylpyrrolidin-3-yl](methyl)amino}ethyl)-1-[3-(trifluoromethoxy)phenyl]piperidine-4-carboxamide] | 10 to 100 |
| COC(=O)c1cc(C)nc(N2CCN(C(=O)NCCC3CCN(Cc4ccccc4)CC3)[C@H](C)C2)n1 [5-12, methyl 2-[(3R)-4-{[2-(1-benzylpiperidin-4-yl)ethyl]carbamoyl}-3-methylpiperazin-1-yl]-6-methylpyrimidine-4-carboxylate] | 100 to 1000 |
| C[C@@H]1CN(c2cnc(C#N)cn2)CCN1C(=O)NCCC1CCN(Cc2ccccc2)CC1 [22-27] | 10 to 100 |
| Cc1nc(-c2ccc(Cl)cc2)sc1C(=O)NCCC1CCN(Cc2ccccc2)CC1 [9-4, N-[2-(1-benzylpiperidin-4-yl)ethyl]-2-(4-chlorophenyl)-4-methyl-1,3-thiazole-5-carboxamide] | 100 to 1000 |
| C[C@@H]1CN(c2ncc(C(=O)N(C)C)cn2)CCN1C(=O)NCCC1CCN(Cc2ccccc2)CC1 [27-17] | 100 to 1000 |
| C[C@@H]1CN(c2nc(C#N)cc(C#N)n2)CCN1C(=O)NCCC1CCN(Cc2ccccc2)CC1 [4-38, (2R)-N-[2-(1-benzylpiperidin-4-yl)ethyl]-4-(4,6-dicyanopyrimidin-2-yl)-2-methylpiperazine-1-carboxamide] | 10 to 100 |
| CC(C)c1noc(C2CCN(C(=O)NCCC3CCN(Cc4ccccc4)CC3)CC2)n1 [8-31, N-[2-(1-benzylpiperidin-4-yl)ethyl]-4-[3-(propan-2-yl)-1,2,4-oxadiazol-5-yl]piperidine-1-carboxamide] | 100 to 1000 |
| O=C(OCCC1CCN(Cc2ccccc2)CC1)N1CCC(O)(c2ccccc2)CC1 [12-7, 2-(1-benzylpiperidin-4-yl)ethyl 4-hydroxy-4-phenylpiperidine-1-carboxylate] | 100 to 1000 |
| N#Cc1cc(N2CCC(O)(C(=O)NCCC3CCN(Cc4ccccc4)CC3)CC2)ccc1OC(F)(F)F [10-36, N-[2-(1-benzylpiperidin-4-yl)ethyl]-1-[3-cyano-4-(trifluoromethoxy)phenyl]-4-hydroxypiperidine-4-carboxamide] | 10 to 100 |
| C[C@@H]1CN(c2ncc(C#N)c(NCC(F)(F)F)n2)C[C@H](C)N1C(=O)NCCC1CCN(Cc2ccccc2)CC1 [5-4, (2S,6R)-N-[2-(1-benzylpiperidin-4-yl)ethyl]-4-{5-cyano-4-[(2,2,2-trifluoroethyl)amino]pyrimidin-2-yl}-2,6-dimethylpiperazine-1-carboxamide] | 10 to 100 |
| Cc1c(C(=O)NCCC2CCN(Cc3ccccc3)CC2)cnc2cc(-c3ccc(OC(F)(F)F)cc3)nn12 [18-13] | 10 to 100 |

| Compound | Ki [nM] |
| --- | --- |
| C[C@@H]1CN(c2ncc(C#N)cn2)C[C@H](C)N1C(=O)NCCC1CCN(CC2CCCCO2)CC1 (some centres unmarked) [21-9] | 100 to 1000 |
| C[C@@H]1CN(c2cnc(C(F)(F)F)nc2)C[C@H](C)N1C(=O)NCCC1CCN(Cc2ccc(F)cc2)CC1 [6-55, (2R,6S)-N-(2-{1-[(4-fluorophenyl)methyl]piperidin-4-yl}ethyl)-2,6-dimethyl-4-[2-(trifluoromethyl)pyrimidin-5-yl]piperazine-1-carboxamide] | 10 to 100 |
| Cc1nc(-c2ccc(F)nc2)sc1C(=O)NCCC1CCN(Cc2ccccc2)CC1 [9-57, N-[2-(1-benzylpiperidin-4-yl)ethyl]-2-(6-fluoropyridin-3-yl)-4-methyl-1,3-thiazole-5-carboxamide] | 100 to 1000 |
| Cc1c(C(=O)NCCC2CCN(Cc3ccccc3)CC2)cnc2cc(-c3ccccc3)nn12 [17-2, N-[2-(1-benzylpiperidin-4-yl)ethyl]-7-methyl-2-phenylpyrazolo[1,5-a]pyrimidine-6-carboxamide] | 100 to 1000 |
| C[C@@H]1CN(c2cnc(C(F)(F)F)nc2)C[C@H](C)N1C(=O)NCCC1CCN(Cc2ccc(N(C)C)cc2)CC1 [6-53, (2R,6S)-N-[2-(1-{[4-(dimethylamino)phenyl]methyl}piperidin-4-yl)ethyl]-2,6-dimethyl-4-[2-(trifluoromethyl)pyrimidin-5-yl]piperazine-1-carboxamide] | 10 to 100 |
| O=C(NCCN[C@@H]1CCN(Cc2ccccc2)C1)C1CCN(c2ccc(OC(F)(F)F)c(F)c2)CC1 [9-28, N-(2-{[(3R)-1-benzylpyrrolidin-3-yl]amino}ethyl)-1-[3-fluoro-4-(trifluoromethoxy)phenyl]piperidine-4-carboxamide] | 10 to 100 |
| N#Cc1ccc(N2CCC(C(=O)NCCC3CCN(Cc4ccccc4O)CC3)CC2)nc1 [11-26, 1-(5-cyanopyridin-2-yl)-N-(2-{1-[(2-hydroxyphenyl)methyl]piperidin-4-yl}ethyl)piperidine-4-carboxamide] | 100 to 1000 |
| O=C(CC1CCN(Cc2ccccc2)CC1)NCC1CCN(c2cccc(OC(F)(F)F)c2)CC1 [10-26, 2-(1-benzylpiperidin-4-yl)-N-({1-[3-(trifluoromethoxy)phenyl]piperidin-4-yl}methyl)acetamide] | 100 to 1000 |
| N#Cc1cc(F)cc(N2CCN(C(=O)OCCC3CCN(Cc4ccccc4)CC3)CC2)c1 [12-9, 2-(1-benzylpiperidin-4-yl)ethyl 4-(3-cyano-5-fluorophenyl)piperazine-1-carboxylate] | 100 to 1000 |
| C[C@@H]1CN(c2cc(F)c(F)c(F)c2)CCN1C(=O)NCCN1CCC(O)(Cc2ccccc2)CC1 [7-7, (2R)-N-[2-(4-benzyl-4-hydroxypiperidin-1-yl)ethyl]-2-methyl-4-(3,4,5-trifluorophenyl)piperazine-1-carboxamide] | 100 to 1000 |
| C[C@@H]1CN(c2ccc(C#N)cc2F)CCN1C(=O)NCCC1CCN(Cc2ccccc2)CC1 [4-43, (2R)-N-[2-(1-benzylpiperidin-4-yl)ethyl]-4-(4-cyano-2-fluorophenyl)-2-methylpiperazine-1-carboxamide] | 10 to 100 |
| C[C@@H]1CN(c2ncc(F)c(Cl)n2)CCN1C(=O)NCCC1CCN(Cc2ccccc2)CC1 [5-9, (2R)-N-[2-(1-benzylpiperidin-4-yl)ethyl]-4-(4-chloro-5-fluoropyrimidin-2-yl)-2-methylpiperazine-1-carboxamide] | 100 to 1000 |
| CN(C(=O)NCCC1CCN(Cc2ccccc2)CC1)C1CCN(c2ccc(C(F)(F)F)cc2)C1 (centres unmarked) [8-21, 1-[2-(1-benzylpiperidin-4-yl)ethyl]-3-methyl-3-{1-[4-(trifluoromethyl)phenyl]pyrrolidin-3-yl}urea] | 100 to 1000 |
| N#Cc1cc(F)ccc1N1CCC(C(=O)NCCC2CCN(Cc3ccccc3)CC2)CC1 [10-69, N-[2-(1-benzylpiperidin-4-yl)ethyl]-1-(2-cyano-4-fluorophenyl)piperidine-4-carboxamide] | 100 to 1000 |
| O=C(NCCC1CCN(Cc2ccccc2)CC1)C1(F)CCN(c2ccccc2OC(F)(F)F)CC1 [10-17, N-[2-(1-benzylpiperidin-4-yl)ethyl]-4-fluoro-1-[2-(trifluoromethoxy)phenyl]piperidine-4-carboxamide] | 100 to 1000 |
| C[C@@H]1CN(c2ncc(F)cc2F)CCN1C(=O)NCCC1CCN(Cc2ccccc2)CC1 [4-48, (2R)-N-[2-(1-benzylpiperidin-4-yl)ethyl]-4-(3,5-difluoropyridin-2-yl)-2-methylpiperazine-1-carboxamide] | 10 to 100 |
| C[C@@H]1CN(c2ccc(C#N)s2)CCN1C(=O)NCCC1CCN(Cc2ccccc2)CC1 [4-44, (2R)-N-[2-(1-benzylpiperidin-4-yl)ethyl]-4-(5-cyanothiophen-2-yl)-2-methylpiperazine-1-carboxamide] | 10 to 100 |
| COc1nc(N2CCN(C(=O)NCCC3CCN(Cc4ccccc4)CC3)[C@H](C)C2)ncc1C#N [5-16, (2R)-N-[2-(1-benzylpiperidin-4-yl)ethyl]-4-(5-cyano-4-methoxypyrimidin-2-yl)-2-methylpiperazine-1-carboxamide] | 10 to 100 |
| O=C(NCCC1CCN(Cc2csnn2)CC1)C1CCN(c2ccc(OC(F)(F)F)cc2)CC1 [11-11, N-{2-[1-(1,2,3-thiadiazol-4-ylmethyl)piperidin-4-yl]ethyl}-1-[4-(trifluoromethoxy)phenyl]piperidine-4-carboxamide] | 100 to 1000 |

— patent publication US11033539B2, “Compounds of formulas (VII), (VIII), (IX), (XI), (XII), (XIII), and (XIV) as muscarinic receptor 4(M4) antagonists for treating neurological diseases” (Neurocrine Biosciences, Inc., priority 2015, dated 2021)
